Experimental data: article PMC10979003, “Development and crystal structures of a potent second-generation dual degrader of BCL-2 and BCL-xL” (Nature Communications, 2024)

Tests used:
[1] = biological target: T1, VCB/PROTAC/BCL-2 ternary complex (Homo sapiens, UniProt P10415+P40337); assay: AlphaLISA ternary complex assay VCB/PROTAC/BCL-2; type: binding; settings: cell-free AlphaLISA
T1 construct: BCL-xL (aa 2-212) and BCL-2 (aa 1-207) transformed cells were grown in LB broth; GST (on the VCB complex); made in house; host or cells: E. coli BL21 (DE3) codon plus (stated for the BCL-2 construct)
Protocol: Assays were performed at room temperature. All reagents were diluted in assay buffer of 25 mM HEPES, pH 7.5, 150 mM NaCl, 0.1% BSA, and 0.005% tween 20. To a 96-well PCR plate (VWR, Cat. No. 82006-636) were added 10 μL self-made 6×His tagged BCL-xL (100 nM) or BCL-2 (150 nM), 10 μL series diluted compounds solution (4× dilution) and 10 μL of self-made GST-VCB (100 nM). After incubating at room temperature for 15 min, 5 µL of alpha glutathione-donor beads (160 μg/mL, PerkinElmer, Cat. No. 6765300) and 5 µL of anti-6×His acceptor beads (160 μg/mL, PerkinElmer, Cat. No. AL128M) to each well and incubated for additional 45 min in the dark before being transferred to two adjacent wells (17 µL each) of 384-well white OptiPlate (PerkinElmer, Cat. No. 6008280). The luminescence signal was detected on a Biotek’s Synergy Neo2 multimode plate reader installed with an AphaScreen filter cube. Intensity values were plotted in Graphpad Prism (9.2.0) with PROTAC concentration values represented on a log10 scale.

[2] = biological target: T2, BCL-2 R110A E114A (Homo sapiens, UniProt P10415, E114A/R110A); assay: AlphaScreen binary binding, BCL-2 R110A E114A; settings: mean ± s.d., n=3
T2 construct: BCL-xL (aa 2-212) and BCL-2 (aa 1-207) transformed cells were grown in LB broth; made in house; host or cells: E. coli BL21 (DE3) codon plus
Protocol: To test the binary/ternary binding affinities of compounds to BCL-2/BCL-xL, AlphaScreen displacement binding assay was performed to test the capabilities of testing compounds to displace a Biotin-tagged Bim (Biotin-[…]) or Bad (Biotin-[…]) from BCL-2 or BCL-xL for BCL-2 and BCL-xL binding affinities, respectively. All reagents were diluted in assay buffer of 25 mM HEPES, pH 7.5, 150 mM NaCl, 0.1% BSA, and 0.005% tween 20 prior incubation. To a 96-well PCR plate (VWR, Cat. No. 82006-636) was added 10 μL Biotin-tagged Bim (15 nM for WT or 50 nM for mutants) or Bad (15 nM for WT or 50 nM for mutants), 10 μL series diluted compounds solution (2 or 3 or 4× dilution), and 10 μL self-made 6×His tagged BCL-2 WT or mutants (25 nM WT or 50 nM mutants) or 10 μL self-made BCL-xL WT and mutants (10 nM WT or 50 nM mutants). […] The luminescence signal was detected on a Biotek’s Synergy Neo2 multimode plate reader installed with an AphaScreen filter cube. The Ki values of each compounds were calculated by fitting data into the “Binding-competitive, One site-Fit Ki” function in GraphPad Prism (9.2.0) based on concentrations of Biotin–peptide used and experimentally determined Kd values of each 6×His protein &&&and Biotin–Peptide pair.

T1 sequence (Q15370 whole entry, the tested form may be a part): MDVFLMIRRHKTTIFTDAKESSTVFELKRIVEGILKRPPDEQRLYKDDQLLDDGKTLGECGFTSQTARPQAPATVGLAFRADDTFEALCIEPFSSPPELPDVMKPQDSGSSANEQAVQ
T1 sequence (Q15369 17-112, further chain): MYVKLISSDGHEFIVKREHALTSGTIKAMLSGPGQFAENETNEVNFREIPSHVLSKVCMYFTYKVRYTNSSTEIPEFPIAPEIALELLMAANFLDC
T1 sequence (P40337 54-213): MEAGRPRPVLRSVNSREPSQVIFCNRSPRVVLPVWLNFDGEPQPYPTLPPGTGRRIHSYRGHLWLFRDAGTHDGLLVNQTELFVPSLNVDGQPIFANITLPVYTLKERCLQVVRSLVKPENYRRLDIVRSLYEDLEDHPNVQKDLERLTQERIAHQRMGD
T1 sequence (P10415 1-207): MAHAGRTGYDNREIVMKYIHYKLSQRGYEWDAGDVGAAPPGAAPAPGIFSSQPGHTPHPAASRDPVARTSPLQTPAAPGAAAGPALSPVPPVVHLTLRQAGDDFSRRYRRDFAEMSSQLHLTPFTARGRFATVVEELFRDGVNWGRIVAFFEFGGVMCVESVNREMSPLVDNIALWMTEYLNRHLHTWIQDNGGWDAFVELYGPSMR
T2 sequence (P10415 1-207 R110A/E114A): as the sequence (P10415 1-207) above, with R110A, E114A counted along it

In the case of `Cc1ncsc1-c1ccc([C@H](C)NC(=O)[C@@H]2C[C@@H](O)CN2C(=O)[C@@H](NC(=O)CN2CCN(CC(=O)N3CCN(C[C@]4(C)CCC(c5ccc(Cl)cc5)=C(CN5CCN(c6ccc(C(=O)NS(=O)(=O)c7ccc(N[C@H](CCN8C[C@@H]9C[C@H]8CO9)CSc8ccccc8)c(S(=O)(=O)C(F)(F)F)c7)cc6)CC5)C4)CC3)CC2)C(C)(C)C)cc1` [WH244], the “Ternary complex formation with BCL-2 (comparison with 753b)” value [1] is reported as “tighter complex” and the Ki [2] is reported as 5.8 ± 0.6 nM.
